Assay results published in ChEMBL document CHEMBL1154287, “Phenylaminopyrimidines as inhibitors of Janus kinases (JAKs)” (Bioorg Med Chem Lett, 2009).

How the values were obtained:
[1] = Cmax in Sprague-Dawley rat at 21 mg/kg; format: ADME, organism-based; set-up: dose 21 mg/kg; details: in vivo
BaF3 [2] = experiment: cells; details: Mus musculus, BaF3, 72 h
Description: Antiproliferative activity against mouse BAF3 cells expressing TEL-JAK2 kinase after 72 hrs by alamar blue assay

[3] = Apparent permeability from basolateral to apical side in human Caco-2 cells; format: ADME, cell-based
in vitro [4] = details: human, Caco-2
Description: Ratio of permeability from apical to basolateral side over basolateral to apical side in human Caco-2 cells

[5] = target: T1, Tyrosine-protein kinase JAK3 (Homo sapiens, UniProt P52333)
T1 sequence (P52333 whole entry): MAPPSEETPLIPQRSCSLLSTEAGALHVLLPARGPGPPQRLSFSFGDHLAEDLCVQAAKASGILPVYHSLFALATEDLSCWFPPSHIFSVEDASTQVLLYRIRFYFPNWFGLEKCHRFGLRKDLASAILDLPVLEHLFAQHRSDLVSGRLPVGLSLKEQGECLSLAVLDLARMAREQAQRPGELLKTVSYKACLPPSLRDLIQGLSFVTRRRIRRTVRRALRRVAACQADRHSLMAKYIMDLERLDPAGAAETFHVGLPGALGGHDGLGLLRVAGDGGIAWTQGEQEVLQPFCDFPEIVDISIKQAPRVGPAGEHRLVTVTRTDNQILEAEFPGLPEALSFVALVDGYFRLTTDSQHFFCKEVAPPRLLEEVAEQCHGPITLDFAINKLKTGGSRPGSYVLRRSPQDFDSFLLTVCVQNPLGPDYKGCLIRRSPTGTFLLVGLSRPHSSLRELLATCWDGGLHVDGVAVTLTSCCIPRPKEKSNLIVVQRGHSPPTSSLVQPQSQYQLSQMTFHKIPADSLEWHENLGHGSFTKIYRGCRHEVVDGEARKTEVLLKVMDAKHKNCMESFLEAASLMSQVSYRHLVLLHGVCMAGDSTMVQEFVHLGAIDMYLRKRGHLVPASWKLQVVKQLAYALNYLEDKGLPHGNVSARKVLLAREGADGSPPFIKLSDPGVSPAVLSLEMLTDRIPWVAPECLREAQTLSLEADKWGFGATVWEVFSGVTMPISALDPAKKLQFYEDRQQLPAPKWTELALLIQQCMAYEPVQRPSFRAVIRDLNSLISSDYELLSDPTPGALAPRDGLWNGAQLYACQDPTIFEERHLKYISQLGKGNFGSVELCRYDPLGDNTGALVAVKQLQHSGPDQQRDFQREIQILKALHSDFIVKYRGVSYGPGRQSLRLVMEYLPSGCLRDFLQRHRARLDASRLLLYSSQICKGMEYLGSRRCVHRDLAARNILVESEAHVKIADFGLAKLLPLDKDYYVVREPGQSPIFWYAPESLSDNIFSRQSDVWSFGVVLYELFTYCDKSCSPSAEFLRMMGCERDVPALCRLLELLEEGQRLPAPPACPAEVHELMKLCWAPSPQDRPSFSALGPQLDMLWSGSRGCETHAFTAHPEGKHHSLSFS
Description: Inhibition of GST-tagged JAK3 kinase

[6] = target: Tyrosine-protein kinase JAK2 (Homo sapiens, UniProt O60674)
Description: Inhibition of GST-tagged JAK2 kinase

BaF3 [7] = experiment: cells; details: Mus musculus, BaF3, 72 h; remark: listed apart in the source
Description: Antiproliferative activity against mouse BAF3 cells expressing TEL-JAK3 kinase after 72 hrs by alamar blue assay

cells = details: Mus musculus, CTLL-2, 72 h
Description: Antiproliferative activity against IL-2-stimulated mouse CTLL-2 cells expressing JAK1/JAK3 after 72 hrs by alamar blue assay

[8] = Oral bioavailability in Sprague-Dawley rat at 21 mg/kg; format: ADME, organism-based; details: in vivo
in vitro [9] = details: human, Caco-2; remark: listed apart in the source
Description: Apparent permeability from apical to basolateral side in human Caco-2 cells

[10] = Blood clearance in Sprague-Dawley rat at 21 mg/kg, iv; format: ADME, organism-based; set-up: dose 21 mg/kg, route intravenous

Sequence of Tyrosine-protein kinase JAK2 (O60674 whole entry): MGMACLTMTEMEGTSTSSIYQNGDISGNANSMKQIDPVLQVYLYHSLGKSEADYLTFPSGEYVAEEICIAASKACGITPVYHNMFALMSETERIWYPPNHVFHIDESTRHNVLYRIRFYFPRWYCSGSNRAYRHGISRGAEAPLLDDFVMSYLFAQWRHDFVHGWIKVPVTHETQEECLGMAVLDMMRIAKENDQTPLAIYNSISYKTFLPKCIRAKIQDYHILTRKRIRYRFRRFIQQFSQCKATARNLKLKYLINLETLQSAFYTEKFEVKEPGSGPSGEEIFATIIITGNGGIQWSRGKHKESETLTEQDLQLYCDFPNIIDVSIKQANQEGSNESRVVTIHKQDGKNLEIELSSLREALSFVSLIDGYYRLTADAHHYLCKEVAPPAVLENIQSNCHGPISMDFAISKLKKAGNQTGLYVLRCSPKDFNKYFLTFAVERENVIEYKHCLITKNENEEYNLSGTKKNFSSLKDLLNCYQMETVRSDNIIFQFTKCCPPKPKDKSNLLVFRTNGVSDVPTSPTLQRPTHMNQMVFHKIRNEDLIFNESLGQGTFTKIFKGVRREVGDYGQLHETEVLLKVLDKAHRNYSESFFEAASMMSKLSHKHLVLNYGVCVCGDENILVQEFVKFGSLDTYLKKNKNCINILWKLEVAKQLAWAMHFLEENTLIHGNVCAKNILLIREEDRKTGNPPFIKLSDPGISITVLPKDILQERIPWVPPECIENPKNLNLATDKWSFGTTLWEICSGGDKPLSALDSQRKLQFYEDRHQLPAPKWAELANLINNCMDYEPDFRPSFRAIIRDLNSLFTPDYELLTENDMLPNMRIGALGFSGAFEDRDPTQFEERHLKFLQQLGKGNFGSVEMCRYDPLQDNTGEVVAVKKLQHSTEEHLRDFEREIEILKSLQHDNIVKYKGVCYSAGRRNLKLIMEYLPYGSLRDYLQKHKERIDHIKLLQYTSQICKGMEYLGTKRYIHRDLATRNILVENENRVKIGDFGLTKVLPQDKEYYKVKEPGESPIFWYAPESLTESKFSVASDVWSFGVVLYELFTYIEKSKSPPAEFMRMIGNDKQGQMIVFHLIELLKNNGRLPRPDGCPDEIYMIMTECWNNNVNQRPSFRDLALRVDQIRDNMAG

Cmax [1]: 270 nM | IC50 (BaF3 [2]): 802 nM | Papp B→A [3]: 56.4 ×10⁻⁶ cm/s | efflux ratio (in vitro [4]): 12.3 | IC50 [5]: 587 nM | IC50 [6]: 2 nM | IC50 (BaF3 [7]): 3560 nM | IC50 (cells): 2220 nM | bioavailability [8]: 5.4% | Papp A→B (in vitro [9]): 4.6 ×10⁻⁶ cm/s | clearance [10]: 36.6 mL/min/kg
SMILES: CS(=O)(=O)Nc1ccc(-c2ccnc(Nc3ccc(CN4CCS(=O)(=O)CC4)cc3)n2)cc1
